The results in this text go back to US20260265267A1, “NOVEL COMPOUNDS WITH MTORC2-INHIBITORY ACTIVITY AND USES THEREOF” (Aliad Biopharma, priority 2023, published 2026).

For assay [1], the system named is amyloid plaques in the brain of 5×FAD mouse. Kind of assay: Amyloid plaque removal in the brain of 5×FAD mice (6E10 antibody, thioflavin-S staining). Format: in vivo. To be noted: 5 mg/kg, 14 days. As to the method:
(§1) In order to evaluate the efficacy of HN2210, HN2213, and HN2313 on Alzheimer's disease-related symptoms, specifically regarding 1) memory and cognitive impairment, 2) amyloid plaques, 3) neurofibrillary tangles (NFTs), and 4) brain inflammation, an in vivo efficacy assessment of HN2210, HN2213 and HN2313 was conducted using 5×FAD Alzheimer's disease model mice. The 5×FAD mice were purchased from Jackson Lab, USA (Cat #034840-JAX) and crossed once with C57bl6 mice to produce F1 heterozygous offspring (Het). The compound was administered via intraperitoneal injection to 6-month-old 5×FAD Het mice, followed by behavioral testing. The normal control mice, which were littermates of the 5×FAD Het mice, were aged to 6 months and received DMSO injection at the same volume.
In order to assess the amyloid plaque removal effect of HN2210, HN2213, and HN2313 compounds in the brains of Alzheimer's disease model mice, the following test was conducted using 5×FAD-DMSO mice without compound treatment, 5×FAD mice treated with HN2210, HN2213, or HN2313 compounds, and normal mice as controls.
Specifically, brain slices sectioned in the coronal plane were selected for every fifth slice from the anterior to the posterior parts of the brain and stained with the 6E10 antibody or thioflavin-S. The 6E10 antibody stains both […] and amyloid plaques, while thioflavin-S specifically stains amyloid plaques. DNA was co-stained with DAPI. The dentate gyrus (DG) region of the hippocampus, where amyloid plaques tend to accumulate heavily, was examined using a confocal scanning microscope, and the images are shown in FIGS. 9a to 9c.

Assay [2] relates to LC3-II. Kind of assay: LC3-II levels in primary cultured cerebral neurons. Format: cell-based, SD mice. Particulars: for effect on LC3-II: 500 nM or 100 nM, time course to 24 hours; for LC3-II (% control): 24 hours. As to the method:
Specifically, primary neural cells were cultured from the cerebral cortex of E16 embryos of SD […] with a gestational age 16-day (Orient Bio). The extracted brain was separated into the left and right hemispheres, the meninges were removed, and the brains were treated with trypsin in Ca^2+/Mg^2+-free HBSS solution. […] The cells were seeded at a density of 19,000 cells/cm^2 onto 35 mm culture dishes coated with 50 μg/ml poly-D-Lysine (Sigma, P0899) and 1 μg/ml laminin (Invitrogen, 23017-015), and then maintained in neurobasal complete media supplemented with B27 (Gibco, 17504-044) in a 5% CO2 incubator.
Therefore, the evaluation of mTORC2 inhibitory activity in primary cultured cerebral cells was conducted using the same method as in Experimental Example 1, except that each compound was treated at concentrations of 500 nM or 100 nM for 24 hours. The time-dependent changes in Akt Ser473 phosphorylation, Akt Thr308 phosphorylation, and LC3-II levels were measured by Western blot analysis.

In assay [3] the test system is 5×FAD Alzheimer's disease model mice. Description: Y-maze test in 5×FAD mice (short-term memory). Format: in vivo. On the procedure:
as §1
Specifically, the Y-maze test was performed using a Y-shaped structure maze made of black acrylic with each arm at a […], and light and a camera were installed on the ceiling, and we measured the number of entries for white mice to freely enter each arm while the surroundings were covered with a curtain. This procedure was used to analyze short-term memory. In order to adapt mice to the environment, they were acclimated to the experimental space for 30 minutes. The mice were placed at one end of the maze and allowed to move freely for 12 minutes. The test was conducted with observation periods divided into 8, 10, and 12 minutes. When all four paws of a mice entered an arm, it was considered as fully entered, and the number of entries into each arm without repetition was recorded. The number of entries into each of the three different arms was divided by the total number of entries into all arms minus 2, and expressed as a percentage.

Where [4] appears, read: 5 mg/kg, intraperitoneal, once daily, 14 days (FIG. 5).

In the case of `O=C1c2cc(F)c(N3CCOCC3)cc2COc2cc3c(cc21)OCO3` [HN2210, 8-(morpholino)-9-fluoro[2]benzoxepino[3,4-f]-1,3-benzodioxol-11(6H)-one], the “reduction of 6E10 signals in the dentate gyrus compared to the 5×FAD-DMSO group” value (shortened to “reduction of 6E10 signals”) in assay [1] was determined as 53%. Besides, in assay [1], the “reduction of thioflavin-S signals in the dentate gyrus compared to the 5×FAD-DMSO group” value (shortened to “reduction of thioflavin-S signals”) amounted to 38%. The “effect on LC3-II” value in assay [2] is recorded as “markedly increased”. In assay [2] (500 nM), the “LC3-II (% control)” value is given as 348 % control. The “Y-maze % alternation, % of the normal control level” value (shortened to “Y-maze % alternation, %”) in assay [3] (0.2 mg/kg, 14 days (FIG. 8a)) was “approximately 85%”; in assay [3] (1 mg/kg, 14 days (FIG. 8a)) it was about 82%; in assay [3] (5 mg/kg, 14 days (FIG. 8a)), about 93%; in assay [3] (setting [4]), 93%. The “Y-maze % alternation, increase compared to 5×FAD-DMSO mice” value (“Y-maze % alternation, increase” for short) in assay [3] (0.2 mg/kg, 14 days (FIG. 8a)) was 1.21 fold; in assay [3] (1 mg/kg, 14 days (FIG. 8a)) it was 1.17 fold; in assay [3] (5 mg/kg, 14 days (FIG. 8a)) it was 1.32 fold; in assay [3] (setting [4]), 1.25 fold.

Turning to `O=C1c2cc(F)c(NCc3ccccc3)cc2COc2cc3c(cc21)OCO3` [HN2213, 8-(benzylamino)-9-fluoro[2]benzoxepino[3,4-f]-1,3-benzodioxol-11(6H)-one], in assay [1], the “reduction of 6E10 signals” value was 29% and the “reduction of thioflavin-S signals” value was 28%. In addition, in assay [2], the “effect on LC3-II” value was “significantly increased”. The “LC3-II (% control)” value in assay [2] (500 nM) amounted to 336 % control. Further, in assay [3] (setting [4]), the “Y-maze % alternation, %” value was found to be 97% and the “Y-maze % alternation, increase” value came to 1.3 fold.

Consider `O=C1c2cc(F)c(NC3CCCC3)cc2COc2cc3c(cc21)OCO3` [HN2313, 8-(cyclopentylamino)-9-fluoro-[1,3]dioxolo[4′,5′:4,5]benzo[1,2-b]benzo[e]oxepin-11(6H)-one], for which, in assay [1], the “reduction of 6E10 signals” value is listed as 38% and the “reduction of thioflavin-S signals” value turned out to be 35%. Moreover, the “LC3-II (% control)” value in assay [2] (100 nM) stood at 86 % control. The “effect on LC3-II” value in assay [2] is reported as “not affected”. Moreover, in assay [3] (setting [4]), the “Y-maze % alternation, %” value was 90% and the “Y-maze % alternation, increase” value worked out at 1.2 fold.
